In patent US10407388B2, “Thiourea derivatives as activators of RORα and pharmaceutical composition containing same” (SEOUL NATIONAL UNIVERSITY R & DB FOUNDATION, priority 2011, dated 2019):

Assays:
[1] = test system: HMGCS2; test: Fatty acid oxidation gene HMGCS2 in HepG2 cells, real-time RT-PCR; format: cell-based, human; conditions: 100 μM, 24 hours; FIG. 8
Experimental: (§1) HepG2 cells (1×10^6 cells/well) were seeded on a 60-dish and cultured overnight in a DMEM containing 10% FBS. The HepG2 cells were maintained at 37° C. in a humidification thermostat containing 5% CO2 and 95% air. After culturing, the HepG2 cells were treated with JC1-38, JC1-40, and JC1-42 at a concentration of 100 μM for 24 hours. After treatment, effects thereof on transcriptional activity were analyzed by real-time reverse transcriptase-polymerase chain reaction (real-time RT-PCR) analysis. The PCR was performed using the following primers respectively specific to MCAD, ACO1, ACO2, HMGCS2, CPT-1, and ACS, which are involved in fatty acid oxidation: […]

[2] = test system: MCAD; test: Fatty acid oxidation gene MCAD in HepG2 cells, real-time RT-PCR; format: cell-based, human; conditions: 100 μM, 24 hours; FIG. 8
Experimental: as §1

[3] = test system: CD36; test: Fatty acid uptake gene CD36 in HepG2 cells, RT-PCR; format: cell-based, human; conditions: 100 μM, 24 hours; FIG. 9a
Experimental: as §1, with “60-dish,” for “60-dish”, “RT-PCR” for “real-time reverse transcriptase-polymerase chain reaction (real-time RT-PCR)”, “CD36 (see FIG. 9a) involved in fatty acid uptake” for “MCAD, ACO1, ACO2, HMGCS2, CPT-1,”, “MTTP and ApoB100 (see FIG. 9b),” for “ACS,”, “the secretion of very low density lipoproteins:” for “fatty acid oxidation:”

[4] = Chemical stability of JC1 compounds; format: physicochemical
[5] = test system: ACO1; test: Fatty acid oxidation gene ACO1 in HepG2 cells, real-time RT-PCR; format: cell-based, human; conditions: 100 μM, 24 hours; FIG. 8
Experimental: as §1

[6] = test system: SREBP-1; test: Expression of SREBP-1 protein in HepG2 cells, western blotting; format: cell-based, human; conditions: for expression of SREBP-1 protein: 100 μM, 24 hours, FIG. 6a; for expression of SREBP-1, which had been increased by T17: 0, 1, 10, 50, 100 μM with 1 μM T17, 24 hours, FIGS. 6b and 6c; for expression of proteins (LXRα, SREBP-1, FAS of FIGS. 6b and 6c): 50 μM to 100 μM with 1 μM T17, 24 hours
Experimental: (§2) HepG2 cells (1×10^6 cells/well) were seeded on a 60-dish and cultured overnight in a DMEM containing 10% FBS. The HepG2 cells were maintained at 37° C. in a humidification thermostat containing 5% CO2 and 95% air. After culturing, the HepG2 cells were treated with each of the JC1-38, JC1-40, and JC1-42 compounds at a concentration of 100 μM, and, as a positive control, the HepG2 cells were treated with 2 mM metformin, which is an AMPK activator, for 24 hours. After treatment, the expression of proteins was analyzed by western blotting analysis. That is, after treatment, the HepG2 cells were destroyed on ice in a lysis buffer containing 50 mM NaCl, 50 mM Tris pH 7.4, 5 mM EDTA, 1% NP-40, and a protease inhibitor for 30 minutes, and then centrifuged to obtain a total cell lysate. 20 μg to 30 μg of proteins collected from the total cell lysate was subjected to 7% to 9% sodium dodecyl sulfate-polyacrylamide gel electrophoresis (SDS-PAGE), and was transferred to a polyvinylidene difluoride membrane (Millipore, Bedford, Mass., USA). The resulting product was subjected to blocking with 5% or 10% (w/v) nonfat dry milk in PBS containing 0.1% Tween-20, and was reacted with antibodies specific to RORα (Affinity BioReagents), LXRα, SREBP-1, FAS (Santa Cruz Biotechnology), phospho-ACC (Cell signaling), and α-tubulin (Calbiochem). Immunoreactive proteins were detected with Amersham ECL western blotting detection reagents using a horseradish peroxidase (HRP)-conjugated secondary antibody (Zymed Lab). Protein concentrations were quantified by bicinchoninic acid (BCA) (Pierce) analysis, and the expression of α-tubulin was monitored as a control. The results thereof are illustrated in FIG. 6a.
(§3) In addition, HepG2 cells were cultured under the same conditions, and then the HepG2 cells were treated with particular concentrations (0 μM, 1 μM, 10 μM, 50 μM, and 100 μM) of JC1-40 (or JC1-42) and 1 μM T17 for 24 hours. After treatment, the expression of proteins was analyzed by western blotting analysis, and the expression of α-tubulin was monitored as a control. The results thereof are illustrated in FIGS. 6b and 6c.

[7] = test system: LXRα; test: Expression of LXRα protein in HepG2 cells, western blotting; format: cell-based, human; conditions: for expression of LXRα protein: 100 μM, 24 hours, FIG. 6a
Experimental: as §2, §3

[8] = test system: ACS; test: Fatty acid oxidation gene ACS in HepG2 cells, real-time RT-PCR; format: cell-based, human; conditions: 100 μM, 24 hours; FIG. 8
Experimental: as §1

[9] = target: T1, RORα (Homo sapiens, UniProt P35398); test: Transcriptional activity of RORα, RORE-tk-Luc reporter in CV-1 cells (Experimental Example 1); format: cell-based; conditions: for Fold Activation: JC1 compounds 100 μM, 24 hours, luciferase activity standardized by β-gal, versus control treated only with solvent
T1 construct: expressed in transfected cells; host or cells: CV-1 cells (ATCC CCL-70)
T1 sequence (P35398 1-523): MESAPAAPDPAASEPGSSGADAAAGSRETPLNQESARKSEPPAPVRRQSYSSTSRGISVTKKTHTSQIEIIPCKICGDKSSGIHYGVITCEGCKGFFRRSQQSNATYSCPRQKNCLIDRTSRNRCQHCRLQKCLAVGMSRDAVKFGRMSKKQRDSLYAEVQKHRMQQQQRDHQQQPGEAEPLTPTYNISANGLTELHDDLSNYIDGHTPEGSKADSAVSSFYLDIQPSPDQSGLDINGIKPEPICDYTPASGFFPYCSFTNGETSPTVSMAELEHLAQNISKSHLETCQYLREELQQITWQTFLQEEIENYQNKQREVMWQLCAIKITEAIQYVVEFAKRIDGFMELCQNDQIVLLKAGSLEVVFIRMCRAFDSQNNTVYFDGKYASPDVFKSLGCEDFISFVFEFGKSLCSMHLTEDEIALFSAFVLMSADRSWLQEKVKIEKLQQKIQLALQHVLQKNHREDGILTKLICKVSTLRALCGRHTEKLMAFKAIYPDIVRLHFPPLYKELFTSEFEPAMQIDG
Experimental: CV-1 cells (CCL-70) were purchased from American Type Culture Collection (ATCC). The CV-1 cells (4×10^4 cells/well) were seeded on a 24-well culture plate and cultured overnight in a Dulbecco's Modified Eagle's Medium (DMEM) containing 10% fetal bovine serum (FBS). The CV-1 cells were maintained at 37° C. in a humidification thermostat containing 5% CO2 and 95% air. After culturing, the cells were transformed with RORE-tk-Luc reporter plasmid (100 ng) and ROR expression vector (5 ng) using calcium phosphate. […]

| SMILES | transcriptional activity of HMGCS2 [1] | transcriptional activity of MCAD [2] | transcriptional activity of CD36 [3] | chemical stability [4] | transcriptional activity of ACO1 [5] | expression of SREBP-1 protein [6] | expression of LXRα protein [7] | transcriptional activity of ACS [8] | Fold Activation [9] | expression of SREBP-1, which had been increased by T17 [6] | expression of proteins (LXRα, SREBP-1, FAS of FIGS. 6b and 6c) [6] | expression of LXRα, which had been increased by T17 ([7]; 0, 1, 10, 50, 100 μM with 1 μM T17, 24 hours, FIG. 6c) | activity (transcriptional activity of RORα) ([9]; 100 μM, relative to control treated only with a solvent) [%] |
| --- | --- | --- | --- | --- | --- | --- | --- | --- | --- | --- | --- | --- | --- |
| CNC(=S)NCc1ccccc1-c1ccncc1 [Compound 38, 1-methyl-3-(4-pyridinyl-2-benzyl)-thiourea] | increased | increased | decreased | highly chemically stable | increased | decreased | decreased | increased | 1.9 |  |  |  |  |
| CNC(=S)NCc1ccc(OCc2ccccc2)cc1 [Compound 40, 1-(4-benzyloxy-benzyl)-3-methyl-thiourea] | increased | increased | decreased | highly chemically stable | increased | decreased | decreased | increased | 3.6 | decreased in a manner dependent on the concentration | strongly inhibited |  |  |
| CNC(=S)NCc1ccc(Oc2ccccc2)cc1 [Compound 42, 1-(4-phenoxy-benzyl)-3-methyl-thiourea] | increased | increased | decreased | highly chemically stable | increased | decreased | decreased | increased | 4.6 | decreased in a manner dependent on the concentration | strongly inhibited | decreased in a manner dependent on the concentration | 460 |
